Calls of active or inactive are those of the source. The rule behind the calls is not given here.
How the values were obtained:
[1] = biological target: T1, Tyrosine-protein phosphatase non-receptor type 1 (Homo sapiens, UniProt P18031); experiment: Inhibition of human PTP1B
T1 sequence (P18031 whole entry): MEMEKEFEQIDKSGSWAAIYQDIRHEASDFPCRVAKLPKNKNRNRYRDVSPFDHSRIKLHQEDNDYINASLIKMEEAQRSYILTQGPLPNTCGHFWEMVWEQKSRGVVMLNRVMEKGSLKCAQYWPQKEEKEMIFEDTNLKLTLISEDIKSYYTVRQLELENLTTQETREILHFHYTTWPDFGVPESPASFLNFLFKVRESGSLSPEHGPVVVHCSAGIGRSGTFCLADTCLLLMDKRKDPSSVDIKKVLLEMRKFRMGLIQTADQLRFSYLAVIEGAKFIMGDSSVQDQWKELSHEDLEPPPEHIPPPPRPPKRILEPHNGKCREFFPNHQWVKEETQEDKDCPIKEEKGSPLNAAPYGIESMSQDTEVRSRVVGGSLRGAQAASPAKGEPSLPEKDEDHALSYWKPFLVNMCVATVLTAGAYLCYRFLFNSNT

HeLa = experiment: Cytotoxicity against human HeLa cells; assay type: functional, cell-based
[2] = tested on: Human immunodeficiency virus 1; experiment: Antiviral activity against HIV1; assay type: functional, organism-based
CHO-K1 [3] = experiment: Activation of insulin signaling pathway in CHOK1 cells; assay type: functional, cell-based; conditions: Cricetulus griseus
3T3-L1 [4] = experiment: Activation of insulin signaling pathway in mouse 3T3L1 cells; assay type: functional, cell-based
3T3-L1 [5] = experiment: Increase in glucose uptake in mouse 3T3L1 cells relative to control; assay type: functional
CHO-K1 [6] = experiment: Induction of membrane translocation of GLUT4 transporter in CHOK1 cells; assay type: functional, cell-based; conditions: Cricetulus griseus
3T3-L1 [7] = experiment: Induction of membrane translocation of GLUT4 transporter in mouse 3T3L1 cells; assay type: functional, cell-based

## COC1=CC(=O)C=C(C[C@@]2(C)CC[C@]3(C)C(C)=CCC[C@H]3[C@H]2C)C1=O
[1]
  IC50: 39.5 µM
HeLa
  IC50: 19.4 µM
[2]
  Activity: inactive

## CC1=CCC[C@H]2[C@](C)(CC3=CC(=O)C=CC3=O)[C@@H](C)CC[C@]12C
[2]
  Activity: inactive

## CC1=CCC[C@H]2[C@](C)(Cc3cc(O)ccc3O)[C@@H](C)CC[C@]12C
[2]
  Activity: inactive

## COC1=CC(=O)C(O)=C(C[C@@]2(C)CC[C@]3(C)C(C)=CCC[C@H]3[C@H]2C)C1=O [BOLINAQUINONE]
HeLa
  IC50: 5.45 µM
[2]
  Activity: inactive

## CC1=CCC[C@H]2[C@@H](C)[C@@](C)(CC3=C(O)C(=O)C=C(NCCS(=O)(=O)O)C3=O)CC[C@]12C [DYSIDINE]
[1]
  IC50: 6.7 µM
CHO-K1 [3]
  Activity: Active
3T3-L1 [4]
  Activity: Active
3T3-L1 [5]
  Activity: 2.3
CHO-K1 [6]
  Activity: Active
3T3-L1 [7]
  Activity: Active
[2]
  Activity: inactive

From ChEMBL document CHEMBL1149079, “A novel sesquiterpene quinone from Hainan sponge Dysidea villosa” (Bioorg Med Chem Lett, 2009)
